In test [1] the target is T1, Prolyl endopeptidase (PEP) (Elizabethkingia meningoseptica, UniProt P27028).
T1 construct: gene f1pep1
The test is described as follows: chromogenic PEP assay, inhibition rate at […]. The class given is biochemical.

The target of another test is T2, UGT85A1 (Arabidopsis thaliana, UniProt Q9SK82).
T2 construct: N-terminal His6-tagged
T2 sequence (Q9SK82 1-489): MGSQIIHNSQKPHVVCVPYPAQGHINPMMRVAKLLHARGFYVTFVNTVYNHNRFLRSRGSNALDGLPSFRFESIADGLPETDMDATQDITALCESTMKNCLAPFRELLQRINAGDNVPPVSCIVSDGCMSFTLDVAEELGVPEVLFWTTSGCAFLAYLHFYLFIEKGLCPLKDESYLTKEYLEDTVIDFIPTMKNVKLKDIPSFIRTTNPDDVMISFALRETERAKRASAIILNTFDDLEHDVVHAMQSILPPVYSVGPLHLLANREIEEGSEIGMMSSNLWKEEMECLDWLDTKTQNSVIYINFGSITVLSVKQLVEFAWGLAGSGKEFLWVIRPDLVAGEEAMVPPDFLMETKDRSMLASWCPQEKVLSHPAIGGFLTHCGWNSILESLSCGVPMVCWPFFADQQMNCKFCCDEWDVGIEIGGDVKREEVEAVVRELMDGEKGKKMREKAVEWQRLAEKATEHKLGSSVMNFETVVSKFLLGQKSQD
Briefly: in vitro glucosylation by purified enzyme, HPLC ([…] conversion). In kind it is biochemical.

Some results are limits rather than exact numbers.

Results on four molecules are retold here after paper PMC9549646, “Diversification of phenolic glucosides by two UDP-glucosyltransferases featuring complementary regioselectivity” (Microbial Cell Factories, 2022).

T1 sequence (P27028 21-705): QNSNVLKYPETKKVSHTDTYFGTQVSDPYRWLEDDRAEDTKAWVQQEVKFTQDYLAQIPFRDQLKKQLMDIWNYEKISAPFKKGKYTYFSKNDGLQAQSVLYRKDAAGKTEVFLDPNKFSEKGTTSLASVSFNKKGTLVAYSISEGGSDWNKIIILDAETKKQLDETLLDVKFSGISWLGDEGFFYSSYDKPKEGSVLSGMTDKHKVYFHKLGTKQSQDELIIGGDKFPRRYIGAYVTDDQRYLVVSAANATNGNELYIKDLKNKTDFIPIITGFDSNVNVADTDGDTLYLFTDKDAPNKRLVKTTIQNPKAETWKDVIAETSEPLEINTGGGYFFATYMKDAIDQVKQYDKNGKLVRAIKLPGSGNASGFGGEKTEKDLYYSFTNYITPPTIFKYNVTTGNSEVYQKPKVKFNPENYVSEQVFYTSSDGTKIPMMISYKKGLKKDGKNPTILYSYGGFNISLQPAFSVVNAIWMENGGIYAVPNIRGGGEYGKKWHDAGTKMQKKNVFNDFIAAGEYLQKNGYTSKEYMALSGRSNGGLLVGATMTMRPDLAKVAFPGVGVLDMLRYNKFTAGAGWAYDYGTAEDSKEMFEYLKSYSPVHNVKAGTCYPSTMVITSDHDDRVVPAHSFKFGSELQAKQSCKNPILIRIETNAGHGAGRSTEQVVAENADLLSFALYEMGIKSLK

On to `OC[C@H]1O[C@@H](OCc2cccc(O)c2)[C@H](O)[C@@H](O)[C@@H]1O` [12b], for which the inhibition at 500 µM in test [1] was above 50%.

Turning to `CC(O[C@@H]1O[C@H](CO)[C@@H](O)[C@H](O)[C@H]1O)c1ccc(O)cc1` (stereo partly shown) [13b], the inhibition at 500 µM in test [1] was above 50%.

As for `CC(O[C@@H]1O[C@H](CO)[C@@H](O)[C@H](O)[C@H]1O)c1cccc(O)c1` (stereo partly shown) [14b], in test [1], the inhibition at 500 µM was above 50%.

Take `OCc1ccc(O)cc1` [compound 1, p-hydroxybenzyl alcohol]: the “in vitro glucosylation by purified enzyme, HPLC (98.9% conversion)” value on UGT85A1 is recorded as “UGT85A1 showed higher selectivity than RrUGT17, producing only the alcoholic glucoside 1b”.
